Entries after “also recorded” stand apart in the source; their conditions may differ.
What was measured:
CAIX = target: T1, CAIX (Homo sapiens, UniProt Q16790); test: CAIX specific uptake in vitro; type: cell-based
T1 construct: host or cells: ccRCC tumours in patients

SK-RC-52 xenografts = test: Radio-therapy of mice bearing SK-RC-52 xenografts; type: in vivo; conditions: 11.1 MBq and 18.5 MBq i.v., n=4
[1] = test system: CAIX-expressing SK-RC-52 tumors; test: Biodistribution in mice bearing SK-RC-52 xenografts; type: in vivo; conditions: 740 kBq i.v.
Outline: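 Female NOD/SCID mice with subcutaneous SK-RC-52 tumors (~100 mm^3) received 740 kBq (20 μCi) radiotracer i.v. in PBS, with or without 200 nmole of 8 co-injected for blocking. Organs and blood were taken at 1–48 h post-injection (n=5), gamma-counted, and expressed as decay-corrected % ID/g (mean±SD).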

CC(CCC(=O)N[C@@H](CC(=O)N[C@@H](CC(=O)N[C@@H](CCCCn1cc(CCCC(=O)Nc2nnc(S(N)(=O)=O)s2)nn1)C(=O)NCCOCCOCCNC(=O)CN1CCN(CC(=O)[O-])CCN(CC(=O)[O-])CCN(CC(=O)[O-])CC1)C(=O)O)C(=O)O)(c1ccc(O)cc1)c1ccc(O)cc1.[177Lu+3] [[^177Lu]XYIMSR-01]
Uptake in vitro (CAIX): CAIX specific uptake | Tumor growth compared with control non-treated mice (SK-RC-52 xenografts): Delays in tumor growth; also recorded: significant therapeutic effect in controlling tumor growth | Biodistribution Bladder ([1]; 1 h post-injection): 26.55 % ID/g | Biodistribution Blood ([1]; 1 h post-injection): 0.55 % ID/g | Biodistribution Brain ([1]; 1 h post-injection): 0.49 % ID/g | Biodistribution Fat ([1]; 1 h post-injection): 1.07 % ID/g | Biodistribution Heart ([1]; 1 h post-injection): 3.59 % ID/g | Biodistribution Kidney ([1]; 1 h post-injection): 40.77 % ID/g | Biodistribution Liver ([1]; 1 h post-injection): 4.15 % ID/g | Biodistribution Lung ([1]; 1 h post-injection): 23.72 % ID/g | Biodistribution Muscle ([1]; 1 h post-injection): 1.42 % ID/g | Biodistribution Pancreas ([1]; 1 h post-injection): 2.03 % ID/g | Biodistribution Small intestine ([1]; 1 h post-injection): 6.11 % ID/g | Biodistribution Spleen ([1]; 1 h post-injection): 0.29 % ID/g | Biodistribution Stomach ([1]; 1 h post-injection): 12.20 % ID/g | Biodistribution Tumor ([1]; 1 h post-injection): 26.91 % ID/g | Tumor/Blood ratio ([1]; 1 h post-injection): 47.9 | Tumor/Kidney ratio ([1]; 1 h post-injection): 0.6 | Tumor/Muscle ratio ([1]; 1 h post-injection): 18.8 | Biodistribution Bladder ([1]; 4 h post-injection): 6.60 % ID/g | Biodistribution Blood ([1]; 4 h post-injection): 0.18 % ID/g | Biodistribution Brain ([1]; 4 h post-injection): 0.33 % ID/g | Biodistribution Fat ([1]; 4 h post-injection): 0.56 % ID/g | Biodistribution Heart ([1]; 4 h post-injection): 1.52 % ID/g | Biodistribution Kidney ([1]; 4 h post-injection): 19.17 % ID/g | Biodistribution Liver ([1]; 4 h post-injection): 1.79 % ID/g | Biodistribution Lung ([1]; 4 h post-injection): 10.35 % ID/g | Biodistribution Muscle ([1]; 4 h post-injection): 0.65 % ID/g | Biodistribution Pancreas ([1]; 4 h post-injection): 0.99 % ID/g | Biodistribution Small intestine ([1]; 4 h post-injection): 2.64 % ID/g | Biodistribution Spleen ([1]; 4 h post-injection): 0.15 % ID/g | Biodistribution Stomach ([1]; 4 h post-injection): 6.06 % ID/g | Biodistribution Tumor ([1]; 4 h post-injection): 26.28 % ID/g | Tumor/Blood ratio ([1]; 4 h post-injection): 150.3 | Tumor/Kidney ratio ([1]; 4 h post-injection): 1.4 | Tumor/Muscle ratio ([1]; 4 h post-injection): 43.7 | Biodistribution Bladder ([1]; 8 h post-injection): 6.00 % ID/g | Biodistribution Blood ([1]; 8 h post-injection): 0.16 % ID/g | Biodistribution Brain ([1]; 8 h post-injection): 0.44 % ID/g | Biodistribution Fat ([1]; 8 h post-injection): 0.46 % ID/g | Biodistribution Heart ([1]; 8 h post-injection): 1.49 % ID/g | Biodistribution Kidney ([1]; 8 h post-injection): 18.99 % ID/g | Biodistribution Liver ([1]; 8 h post-injection): 1.87 % ID/g | Biodistribution Lung ([1]; 8 h post-injection): 8.87 % ID/g | Biodistribution Muscle ([1]; 8 h post-injection): 0.47 % ID/g | Biodistribution Pancreas ([1]; 8 h post-injection): 1.03 % ID/g | Biodistribution Small intestine ([1]; 8 h post-injection): 3.67 % ID/g | Biodistribution Spleen ([1]; 8 h post-injection): 0.29 % ID/g | Biodistribution Stomach ([1]; 8 h post-injection): 6.15 % ID/g | Biodistribution Tumor ([1]; 8 h post-injection): 27.48 % ID/g | Tumor/Blood ratio ([1]; 8 h post-injection): 178.6 | Tumor/Kidney ratio ([1]; 8 h post-injection): 1.5 | Tumor/Muscle ratio ([1]; 8 h post-injection): 65.0 | Biodistribution Bladder ([1]; 24 h + block (200 nmole of 8)): 0.73 % ID/g | Biodistribution Blood ([1]; 24 h + block (200 nmole of 8)): 0.04 % ID/g | Biodistribution Brain ([1]; 24 h + block (200 nmole of 8)): 0.04 % ID/g | Biodistribution Fat ([1]; 24 h + block (200 nmole of 8)): 0.03 % ID/g | Biodistribution Heart ([1]; 24 h + block (200 nmole of 8)): 0.08 % ID/g | Biodistribution Kidney ([1]; 24 h + block (200 nmole of 8)): 1.54 % ID/g | Biodistribution Liver ([1]; 24 h + block (200 nmole of 8)): 0.46 % ID/g | Biodistribution Lung ([1]; 24 h + block (200 nmole of 8)): 0.73 % ID/g | Biodistribution Muscle ([1]; 24 h + block (200 nmole of 8)): 0.03 % ID/g | Biodistribution Pancreas ([1]; 24 h + block (200 nmole of 8)): 0.05 % ID/g | Biodistribution Small intestine ([1]; 24 h + block (200 nmole of 8)): 0.18 % ID/g | Biodistribution Spleen ([1]; 24 h + block (200 nmole of 8)): 0.38 % ID/g | Biodistribution Stomach ([1]; 24 h + block (200 nmole of 8)): 0.21 % ID/g | Biodistribution Tumor ([1]; 24 h + block (200 nmole of 8)): 1.70 % ID/g | Tumor/Blood ratio ([1]; 24 h + block (200 nmole of 8)): 42.0 | Tumor/Kidney ratio ([1]; 24 h + block (200 nmole of 8)): 1.4 | Tumor/Muscle ratio ([1]; 24 h + block (200 nmole of 8)): 58.6 | Biodistribution Bladder ([1]; 24 h post-injection): 1.29 % ID/g | Biodistribution Blood ([1]; 24 h post-injection): 0.02 % ID/g | Biodistribution Brain ([1]; 24 h post-injection): 0.28 % ID/g | Biodistribution Fat ([1]; 24 h post-injection): 0.05 % ID/g | Biodistribution Heart ([1]; 24 h post-injection): 0.28 % ID/g | Biodistribution Kidney ([1]; 24 h post-injection): 3.11 % ID/g | Biodistribution Liver ([1]; 24 h post-injection): 0.47 % ID/g | Biodistribution Lung ([1]; 24 h post-injection): 1.48 % ID/g | Biodistribution Muscle ([1]; 24 h post-injection): 0.10 % ID/g | Biodistribution Pancreas ([1]; 24 h post-injection): 0.16 % ID/g | Biodistribution Small intestine ([1]; 24 h post-injection): 0.96 % ID/g | Biodistribution Spleen ([1]; 24 h post-injection): 0.20 % ID/g | Biodistribution Stomach ([1]; 24 h post-injection): 1.02 % ID/g | Biodistribution Tumor ([1]; 24 h post-injection): 12.51 % ID/g | Biodistribution Bladder ([1]; 48 h + block (200 nmole of 8)): 0.28 % ID/g | Biodistribution Blood ([1]; 48 h + block (200 nmole of 8)): 0.04 % ID/g | Biodistribution Brain ([1]; 48 h + block (200 nmole of 8)): 0.02 % ID/g | Biodistribution Fat ([1]; 48 h + block (200 nmole of 8)): 0.02 % ID/g | Biodistribution Heart ([1]; 48 h + block (200 nmole of 8)): 0.04 % ID/g | Biodistribution Kidney ([1]; 48 h + block (200 nmole of 8)): 0.39 % ID/g | Biodistribution Liver ([1]; 48 h + block (200 nmole of 8)): 0.23 % ID/g | Biodistribution Lung ([1]; 48 h + block (200 nmole of 8)): 0.18 % ID/g | Biodistribution Muscle ([1]; 48 h + block (200 nmole of 8)): 0.01 % ID/g | Biodistribution Pancreas ([1]; 48 h + block (200 nmole of 8)): 0.02 % ID/g | Biodistribution Small intestine ([1]; 48 h + block (200 nmole of 8)): 0.05 % ID/g | Biodistribution Spleen ([1]; 48 h + block (200 nmole of 8)): 0.15 % ID/g | Biodistribution Stomach ([1]; 48 h + block (200 nmole of 8)): 0.09 % ID/g | Biodistribution Tumor ([1]; 48 h + block (200 nmole of 8)): 0.65 % ID/g | Tumor/Blood ratio ([1]; 48 h + block (200 nmole of 8)): 42.7 | Tumor/Kidney ratio ([1]; 48 h + block (200 nmole of 8)): 1.7 | Tumor/Muscle ratio ([1]; 48 h + block (200 nmole of 8)): 62.5 | Biodistribution Bladder ([1]; 48 h post-injection): 0.20 % ID/g | Biodistribution Blood ([1]; 48 h post-injection): 0.04 % ID/g | Biodistribution Brain ([1]; 48 h post-injection): 0.17 % ID/g | Biodistribution Fat ([1]; 48 h post-injection): 0.03 % ID/g | Biodistribution Heart ([1]; 48 h post-injection): 0.12 % ID/g | Biodistribution Kidney ([1]; 48 h post-injection): 0.76 % ID/g | Biodistribution Liver ([1]; 48 h post-injection): 0.19 % ID/g | Biodistribution Lung ([1]; 48 h post-injection): 0.90 % ID/g | Biodistribution Muscle ([1]; 48 h post-injection): 0.04 % ID/g | Biodistribution Pancreas ([1]; 48 h post-injection): 0.06 % ID/g | Biodistribution Small intestine ([1]; 48 h post-injection): 0.20 % ID/g | Biodistribution Spleen ([1]; 48 h post-injection): 0.13 % ID/g | Biodistribution Stomach ([1]; 48 h post-injection): 0.35 % ID/g | Biodistribution Tumor ([1]; 48 h post-injection): 5.82 % ID/g | Tumor/Blood ratio ([1]; 48 h post-injection): 200.2 | Tumor/Kidney ratio ([1]; 48 h post-injection): 7.1 | Tumor/Muscle ratio ([1]; 48 h post-injection): 141.5
